Experimental data as given in patent publication US9034922B2, “Composition for maintaining function of platelets” (THE UNIVERSITY OF TOKYO, priority 2010, dated 2015).

How the values were obtained:
ADAM17 = molecular target: T1, ADAM17 (Homo sapiens, UniProt P78536); assay: ADAM17 inhibition experiment (fluorescent synthetic substrate); type: biochemical; settings: from Table 3
T1 construct: made in house; host or cells: mammalian cells or insect cells
Method: The cDNA was incorporated into an expression vector. Then, this vector was transfected into mammalian cells or insect cells, and ADAM17 was expressed and obtained.
Next, the activity of ADAM17 was measured, as follows in the presence or absence of the test substances, in which obtained ADAM17 was used as an enzyme, and a fluorescent synthetic substrate Nma (N-methyl anthranilate)-[…]Dnp (dinitrophenyl)-D-Arg-NH2 containing an ADAM17-cleavage sequence of membrane-bound TNF was used as a substrate.
Specifically, 90 μL of 14 units of an enzyme solution (1 unit is defined as an amount of enzyme degrading […] of the substrate in 1 minute at 25° C.) prepared with Assay Buffer A (50 mmol/L Tris-HCl buffer (pH 7.5) containing 200 mmol/L sodium chloride, 5 mmol/L calcium chloride, 10 μmol/L zinc sulfate, and 2 mg/mL bovine serum albumin) was mixed with 90 μL of the fluorescent synthetic substrate adjusted to be 20 μmol/L with Assay Buffer B (50 mmol/L Tris-HCl buffer (pH 7.5) containing 200 mmol/L sodium chloride, 5 mmol/L calcium chloride, 10 μmol/L zinc sulfate, and 0.05% PLURONIC F-68), and allowed for reaction at 37° C. for 1.5 hours. Thereafter, the enzyme activity was determined by measurement using a fluorometer (Fluoroskan Ascent) under conditions of an excitation wavelength of 355 nm and a measurement wavelength of 460 nm. Then, an inhibition rate was obtained based on the enzyme activities in the presence and absence of the test compounds, and the 50% inhibitory concentration (IC50) was calculated.
A disintegrin and metalloproteinase 17 (ADAM17, TACE) (used was one prepared at Kaken Pharmaceutical Co., Ltd. by employing the genetic recombination in the same way as in Test Example 3. Note that, the same as in Test Example 3, 1 unit is defined as an amount of enzyme degrading 1 pmol of substrate in 1 minute at 25° C.)
TACE substrate (the same as one used in Test Example 3): excitation wavelength at 355 nm, emission wavelength at 460 nm
(§1) The enzyme reaction was carried out using the enzymes and substrates. Specifically, if necessary, the enzyme was activated in advance with APMA (final concentration 1 mmol/L, p-aminophenylmercuric acetate, manufactured by Sigma-Aldrich Co., A9563) according to information from the manufacturer. Then, in a 96-well plate for fluorescence measurement, 90 μL of an enzyme solution prepared with Assay Buffer A (50 mmol/L Tris-HCl buffer (pH 7.5) containing 200 mmol/L sodium chloride, 5 mmol/L calcium chloride, 10 μmol/L zinc sulfate, and 2 mg/mL bovine serum albumin) was mixed with 90 μL of the substrate adjusted to be 20 μmol/L with Assay Buffer B (50 mmol/L Tris-HCl buffer (pH 7.5) containing 200 mmol/L sodium chloride, 5 mmol/L calcium chloride, 10 μmol/L zinc sulfate, and 0.05% PLURONIC F-68), and incubated for reaction at 25° C. or 37° C. for several hours. Moreover, the fluorescence intensities before and after the reaction were measured using a fluorometer to determine the enzyme activity. An inhibition rate was obtained based on the enzyme activities in the presence and absence of the test substances, and the 50% inhibitory concentration (IC50) was calculated.

[1] = molecular target: T2, Matrix metalloproteinase 1 (MMP-1) (Homo sapiens, UniProt P03956); assay: Enzyme inhibition experiment, MMP-1; type: biochemical; settings: 444221 substrate, 37° C., 5 hours
T2 construct: purchased Calbiochem 444208
T2 sequence (P03956 100-469): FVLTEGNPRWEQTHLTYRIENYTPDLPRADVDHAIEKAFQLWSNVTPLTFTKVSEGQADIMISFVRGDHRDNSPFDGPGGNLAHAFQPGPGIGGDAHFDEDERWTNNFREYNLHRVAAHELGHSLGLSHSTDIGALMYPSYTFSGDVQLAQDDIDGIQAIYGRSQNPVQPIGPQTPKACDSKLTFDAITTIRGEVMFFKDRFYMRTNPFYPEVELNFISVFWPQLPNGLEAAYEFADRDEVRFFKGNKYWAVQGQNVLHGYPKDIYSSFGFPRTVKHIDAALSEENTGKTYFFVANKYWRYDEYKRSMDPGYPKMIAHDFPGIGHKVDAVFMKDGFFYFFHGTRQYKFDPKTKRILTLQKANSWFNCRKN
Method: as §1

[2] = molecular target: T3, Matrix metalloproteinase 3 (MMP-3) (Homo sapiens, UniProt P08254); assay: Enzyme inhibition experiment, MMP-3; type: biochemical; settings: 3168 substrate, 37° C., 4 hours
T3 construct: purchased Calbiochem 444217
T3 sequence (P08254 100-272 limits assumed): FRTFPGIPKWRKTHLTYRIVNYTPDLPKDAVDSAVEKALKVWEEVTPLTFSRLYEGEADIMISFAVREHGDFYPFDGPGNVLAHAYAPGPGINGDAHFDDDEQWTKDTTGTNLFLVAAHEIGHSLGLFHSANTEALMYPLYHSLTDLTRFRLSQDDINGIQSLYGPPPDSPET
Method: Matrix metalloproteinase 3 (MMP-3) (manufactured by Calbiochem, product number: 444217)
(§2) 3168 substrate (MOCAc-Arg-Pro-Lys-Pro-Val-Glu-Nva-Trp-Arg-Lys(Dnp)-NH2, manufactured by Peptide Institute, Inc.): excitation wavelength at 320 nm, emission wavelength at 405 nm, and 3163 substrate (MOCAc-Pro-Leu-Gly-Leu-A2pr(Dnp)-Ala-Arg-NH2, manufactured by Peptide Institute, Inc.): excitation wavelength at 320 nm, emission wavelength at 405 nm.
as §1

[3] = molecular target: T4, Matrix metalloproteinase 14 (MMP-14) (Homo sapiens, UniProt P50281); assay: Enzyme inhibition experiment, MMP-14; type: biochemical; settings: 444221 substrate, 37° C., 5 hours
T4 construct: purchased Calbiochem 475935
Method: Matrix metalloproteinase 14 (MMP-14) (manufactured by Calbiochem, product number: 475935)
444221 substrate (DNP-Pro-Cha-Gly-Cys(Me)-His-Ala-Lys(Nma)-NH2, custom synthesis): excitation wavelength at 355 nm, emission wavelength at 460 nm
as §1

[4] = molecular target: T5, Matrix metalloproteinase 17 (MMP-17) (Homo sapiens, UniProt Q9ULZ9); assay: Enzyme inhibition experiment, MMP-17; type: biochemical; settings: 3163 substrate, 25° C., 5 hours
T5 construct: purchased Calbiochem 475940
T5 sequence (Q9ULZ9 126-298 limits assumed): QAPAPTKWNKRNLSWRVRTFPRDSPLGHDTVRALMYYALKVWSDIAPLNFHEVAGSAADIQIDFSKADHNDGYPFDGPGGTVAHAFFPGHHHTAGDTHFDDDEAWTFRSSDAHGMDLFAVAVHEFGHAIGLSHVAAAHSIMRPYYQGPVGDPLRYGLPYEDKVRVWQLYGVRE
Method: Matrix metalloproteinase 17 (MMP-17) (manufactured by Calbiochem, product number: 475940)
as §2, §1

[5] = test system: ES cell-derived platelets (ADAM17-mediated GPIbα shedding); assay: Function-maintaining effect on ES cell-derived platelets in culture system (flow cytometry CD41/CD42b, platelet count)
Method: As human ES cells (hES cells), a KhES cell line (KhES-3) established by and provided from Institute for Frontier Medical Sciences, Kyoto University was used.
The human ES cells or the human iPS cells were seeded on the feeder cells such that the cell count was 5×10^4 to 1×10^5/10-cm dish. The cells were cultured in Iscove's Modified Dulbecco's Medium (IMDM, manufactured by Invitrogen Corp/GIBCO) supplemented with 15% FBS (product name: CELLect™ GOLD, manufactured by ICN Biomedicals Inc.), 2 mM L-glut amine (manufactured by Invitrogen Corp.), ITS supplement (10 μg/ml insulin, 5.5 mg/ml human transferrin, 5 ng/ml sodium selenite) (manufactured by Sigma-Aldrich Co.), 50 μg/ml ascorbic acid (Sigma-Aldrich Co.), 0.45 mM α-monothioglycerol (MTG, manufactured by Sigma-Aldrich Co.), and 20 ng/ml vascular endothelial growth factor (VEGF, manufactured by R&D Systems, Inc.). Further, this culturing was carried out at 37° C. in 5% CO2 and 21% O2 (atmospheric oxygen) using a CO2 incubator (product name: HERA CELL 150i, manufactured by Thermo Fisher Scientific K. K.). Then, the medium was replaced every 3 days, and the culturing was continued under the conditions until Day 15 when a large number of sac structures (sac-like structures) containing hematopoietic progenitor cells therein were observed.
Next, after detached from the dish, the sac structures were disrupted and suspended in a 3% FBS-containing phosphate buffer solution (PBS). Then, the suspension was passed through a 40-μm cell strainer (manufactured by BD). The solution thus passed through was centrifuged at 440×g for 10 minutes to collect hematopoietic progenitor cells, and the cells was counted. The hematopoietic progenitor cells were seeded on 10T1/2 cells newly prepared in a 6-well plate (6×10^5 cells/plate) exposed to 50-Gy radiation such that the number of the hematopoietic progenitor cells was 2 to 3×10^4/well. The hematopoietic progenitor cells were further cultured for 8 days in IMDM (manufactured by Invitrogen Corp/GIBCO) supplemented with 15% FBS (product name: CELLect™ GOLD, manufactured by ICN Biomedicals Inc.), 2 mM L-glutamine (manufactured by Invitrogen Corp.), ITS supplement (10 μg/ml insulin, 5.5 mg/ml transferrin, 5 ng/ml sodium selenite) (manufactured by Sigma-Aldrich Co.), 50 μg/ml ascorbic acid (manufactured by Sigma-Aldrich Co.), 0.45 mM MTG (manufactured by Sigma-Aldrich Co.), 100 ng/ml human thrombopoietin (human TPO, manufactured by PeproTech, Inc.), 50 ng/ml human stem cell factor (SCF, manufactured by PeproTech, Inc.), and 25 U/ml heparin. Thereby, megakaryocytes/platelets were induced.
Subsequently, the induced megakaryocytes/platelets were collected with an anticoagulant solution (Acid Citrate Dextrose, ACD), followed by centrifugation at 900 rpm for 10 minutes without a break. The supernatant obtained by the centrifugation was further centrifuged at 1500 rpm for 10 minutes without a break to remove the supernatant. Thereafter, the numbers of megakaryocytes and platelets in the precipitate thus obtained were analyzed by flow cytometry using antibodies for staining.
Note that, in the flow cytometry, FACS Aria manufactured by Becton, Dickinson and Company was used. As the antibodies used to stain the megakaryocytes and the platelets, used were a Phycoerythrin (PE)-modified anti-human CD42a (GPIX) antibody, a PE-modified anti-human CD42b (GPIbα) antibody, and an allophycocyanin (APC)-labelled anti-CD41a (integrin αIIbbeta3 complex, HIP8 clone) antibody (manufactured by BD Bioscience). Additionally, in order to accurately measure the absolute numbers of the megakaryocytes and the platelets, the cells were stained with these antibodies, and the analysis was conducted by flow cytometry using TruCount beads (manufactured by BD Bioscience), also.

T1 sequence (P78536 215-824): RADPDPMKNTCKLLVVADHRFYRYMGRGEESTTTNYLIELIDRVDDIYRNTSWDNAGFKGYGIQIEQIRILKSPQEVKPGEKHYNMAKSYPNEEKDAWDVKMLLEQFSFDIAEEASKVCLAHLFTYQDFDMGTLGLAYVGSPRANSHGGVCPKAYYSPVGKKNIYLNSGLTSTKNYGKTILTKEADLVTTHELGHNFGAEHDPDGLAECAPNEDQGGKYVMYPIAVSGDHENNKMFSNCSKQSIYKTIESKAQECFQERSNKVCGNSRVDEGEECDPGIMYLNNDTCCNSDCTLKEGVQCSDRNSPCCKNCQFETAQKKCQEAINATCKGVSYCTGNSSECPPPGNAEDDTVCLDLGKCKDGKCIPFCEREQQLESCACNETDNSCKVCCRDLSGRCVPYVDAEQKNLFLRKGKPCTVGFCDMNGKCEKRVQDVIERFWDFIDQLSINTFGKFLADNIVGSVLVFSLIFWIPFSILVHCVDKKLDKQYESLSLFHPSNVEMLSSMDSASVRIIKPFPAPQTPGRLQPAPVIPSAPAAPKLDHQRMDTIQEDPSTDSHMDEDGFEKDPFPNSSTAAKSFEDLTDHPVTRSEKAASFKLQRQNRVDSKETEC

Structure (SMILES): CC#CCOc1ccc(S(=O)(=O)CC(c2ccc(CN(CC)CC)cc2)N(O)C=O)cc1 (stereo not shown) [Compound I-1, N-[2-(4-But-2-ynyloxybenzenesulfonyl)-1-(4-diethylaminomethylphenyl)ethyl]-N-hydroxyformamide]
- specificity to ADAM17 in comparison with metalloproteinases other than ADAM17 (ADAM17): high specificity to ADAM17
- IC50 [1]: > 100 µM
- IC50 [2]: 8.3 µM
- IC50 [3]: 1000 nM
- IC50 [4]: 2.8 µM
- inhibitory effect on GPIbα shedding compared with 50 μM GM6001 ([5]; Test Example 5, S-45282 at 5 μM): inhibitory effect equivalent to 50 μM GM6001
- inhibition of ADAM17-mediated GPIbα shedding (CD42b(+) percentage) ([5]; Test Example 5, added for 2 days or 8 days, GM6001 50 μM, S-45282 5 μM or 50 μM): inhibit ADAM17-mediated GPIbα shedding
- number of platelets obtained ([5]; Test Example 5, added for 2 days, 50 μM GM6001, 5 μM S-45282): approximately the same

Structure (SMILES): CC#CCOc1ccc(S(=O)(=O)CC(c2ccc(CNS(C)(=O)=O)cc2)N(O)C=O)cc1 (stereo not shown) [Compound I-4, N-{4-[2-(4-But-2-ynyloxybenzenesulfonyl)-1-(formylhydroxyamino)ethyl]benzyl}methanesulfonamide]
- specificity to ADAM17 in comparison with metalloproteinases other than ADAM17 (ADAM17): high specificity to ADAM17
- IC50 [1]: > 100 µM
- IC50 [2]: 6.5 µM
- IC50 [3]: 1400 nM
- IC50 [4]: 3.4 µM
- inhibition of ADAM17-mediated GPIbα shedding ([5]; Test Example 6, 8 days, S-45457 5 μM or 50 μM, GM6001 50 μM): inhibits ADAM17-mediated GPIbα shedding
- toxicity to cells (total number of platelets) ([5]; Test Example 7, ES cells and differentiated cells, 1.5 to 50 μM, 8 days): low toxicity
- concentration dependency of inhibition of GPIbα shedding ([5]; Test Example 7, ES cells, S-45457 1.5 to 50 μM, 8 days): inhibit ADAM17-mediated GPIbα shedding in a manner dependent on the added concentration
